Here are results for 19 compounds from patent US12606541B2, “PPARg modulators and methods of use” (Eisai R&D Management Co., Ltd., priority 2020, dated 2026).

Like-named read-outs stand apart in the source and are kept apart here.

In test [1] the target is T1, His6-TEV-PPARγ-(234-505) (Homo sapiens, UniProt P37231).
T1 construct: The His6-TEV-PPARγ-(234-505) protein for assay was expressed and purified; TEV cleavage site (N); made in house
T1 sequence (P37231 234-505): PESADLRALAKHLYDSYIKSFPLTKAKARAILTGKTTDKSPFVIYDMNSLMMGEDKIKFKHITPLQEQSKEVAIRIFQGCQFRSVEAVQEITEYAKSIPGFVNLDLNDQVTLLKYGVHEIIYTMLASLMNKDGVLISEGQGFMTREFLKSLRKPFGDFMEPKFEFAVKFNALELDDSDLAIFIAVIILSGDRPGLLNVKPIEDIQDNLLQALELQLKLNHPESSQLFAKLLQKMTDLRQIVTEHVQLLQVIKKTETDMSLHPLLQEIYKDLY
The test is described as follows: TR-FRET Assay to Measure Co-R Peptide Recruitment to PPARγ. Particulars: Co-R peptide (SMRT-ID2) recruitment, top final concentration 20 μM, read-out: TR-FRET i-Ag, AC50. Type of test: biochemical. A digest of the protocol: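 His-tagged PPARγ (or controls) was preincubated with compound for 20 minutes at room temperature, then 5 nM anti-His terbium antibody and 200 nM FITC-labeled SMRT-ID2 corepressor peptide (final) were added for a further hour. TR-FRET signal was normalized to percent response using 500 nM T0070907 and DMSO controls.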
On the technique in general: TR-FRET usually uses a lanthanide donor and a delayed reading to cut background.

For test [2], the system named is UM-UC-9 engineered cells. The test is described as follows: Cell proliferation / short-term viability assay, CellTiter-Glo 144 h. In kind it is cell-based, human. As to conditions: read-out: CTGlo 144 h UMUC9.5, G150. A digest of the protocol: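 UM-UC-9 engineered assay-ready cells seeded at 500 cells/well in high-glucose DMEM/10% FBS, treated from dose-response plates, grown at 37° C, 5% CO2. CellTiter-Glo 2.0 luminescence read on day 7, with a day-0 pretreatment plate as T0 reference and DMSO wells as negative control.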

In the case of `COc1cc(-c2cc(C(=O)N3CC[C@H](C(=O)NCc4ncc(F)cc4N4CCN(C)CC4)CC34CC4)n[nH]2)c(F)cn1` [Example 404, (S)-4-(5-(5-fluoro-2-methoxypyridin-4-yl)-1H-pyrazole-3-carbonyl)-N-((5-fluoro-3-(4-methylpiperazin-1-yl)pyridin-2-yl)methyl)-4-azaspiro[2.5]octane-7-carboxamide], in test [1], the AC50 is 164 nM. For the same compound, in test [2] (Homo sapiens, UM-UC-9, 144 h), the IC50 came to 887 nM.

Turning to `COc1cc(-c2cc(C(=O)N3CCC(C(=O)NCc4cnc5[nH]ccc5c4)CC3)n[nH]2)c(Cl)cn1` [Example 168, N-((1H-pyrrolo[2,3-b]pyridin-5-yl)methyl)-1-(5-(5-chloro-2-methoxypyridin-4-yl)-1H-pyrazole-3-carbonyl)piperidine-4-carboxamide], in test [1], the AC50 is 45.7 nM. The IC50 in test [2] (Homo sapiens, UM-UC-9, 144 h) stood at 487 nM.

Regarding `COc1cc(-c2cc(C(=O)N3CC[C@H](C(=O)NCc4sc(C)nc4C(F)(F)F)CC34CC4)[nH]n2)c(F)cn1` [Example 517, (S)-4-(3-(5-fluoro-2-methoxypyridin-4-yl)-1H-pyrazole-5-carbonyl)-N-((2-methyl-4-(trifluoromethyl)thiazol-5-yl)methyl)-4-azaspiro[2.5]octane-7-carboxamide], the AC50 in test [1] turned out to be 7.9 nM. Moreover, the IC50 in test [2] (Homo sapiens, UM-UC-9, 144 h) was determined as 20.3 nM.

With `COc1cc(-c2cc(C(=O)N3CC[C@H](C(=O)Nc4cnn5ccc(C#N)nc45)CC34CC4)n[nH]2)c(F)cn1` [Example 487, (S)—N-(5-cyanopyrazolo[1,5-a]pyrimidin-3-yl)-4-(5-(5-fluoro-2-methoxypyridin-4-yl)-1H-pyrazole-3-carbonyl)-4-azaspiro[2.5]octane-7-carboxamide], the AC50 in test [1] was 0.7 nM. For the same compound, the IC50 in test [2] (Homo sapiens, UM-UC-9, 144 h) came to 2.4 nM.

In the case of `COc1cc(-c2cc(C(=O)N3CCC(C(=O)N(C)Cc4cccc(Cl)c4)CC3)n[nH]2)c(F)cn1` [Example 161, N-(3-chlorobenzyl)-1-(5-(5-fluoro-2-methoxypyridin-4-yl)-1H-pyrazole-3-carbonyl)-N-methylpiperidine-4-carboxamide], the AC50 in test [1] worked out at 941 nM. Besides, the IC50 in test [2] (Homo sapiens, UM-UC-9, 144 h) came to 1950 nM.

Consider “(S)—N—((S)-1-(5-cyclopropyl-1,3,4-oxadiazol-2-yl)ethyl)-4-(5-(5-fluoro-2-methoxypyridin-4-yl)-1H-pyrazole-3-carbonyl)-4-azaspiro[2.5]octane-7-carboxamide and (S)—N—((R)-1-(5-cyclopropyl-1,3,4-oxadiazol-2-yl)ethyl)-4-(5-(5-fluoro-2-methoxypyridin-4-yl)-1H-pyrazole-3-carbonyl)-4-azaspiro[2.5]octane-7-carboxamide [Example 395]”, for which, in test [1], the AC50 was 274 nM. The IC50 in test [2] was 761 nM.

In the case of `COc1cc(-c2cc(C(=O)N3CCC(C(=O)Nc4cnc(C)c(C)n4)CC3)n[nH]2)c(Cl)cn1` [Example 260, 1-(5-(5-chloro-2-methoxypyridin-4-yl)-1H-pyrazole-3-carbonyl)-N-(5,6-dimethylpyrazin-2-yl)piperidine-4-carboxamide], in test [1], the AC50 is 970 nM. In addition, the IC50 in test [2] (Homo sapiens, UM-UC-9, 144 h) amounted to 4030 nM.

As for `COc1cc(-c2cc(C(=O)N3CCC(C(=O)NC4CCC(C(F)(F)F)CC4)CC3)n[nH]2)c(Cl)cn1` (single isomer, unassigned) [Example 118-B], the AC50 in test [1] (listed as 118b) was determined as 964 nM. Moreover, the IC50 in test [2] (listed as 118b) was 2960 nM.

On to `COc1cc(-c2cc(C(=O)N3CC[C@@H](C(=O)NCc4ccc5[nH]nc(F)c5c4)CC34CC4)n[nH]2)c(F)cn1` (single isomer, unassigned) [Example 288-B], for which the AC50 in test [1] was 39 nM. In addition, the IC50 in test [2] (Homo sapiens, UM-UC-9, 144 h) came to 56.8 nM.

In the case of `COc1cc(-c2cc(C(=O)N3CCC(C(=O)NC4(C)CCC(C)CC4)CC3)n[nH]2)c(Cl)cn1` (mixture of isomers) [Example 163, 1-(5-(5-chloro-2-methoxypyridin-4-yl)-1H-pyrazole-3-carbonyl)-N (1,4-dimethylcyclohexyl)piperidine-4-carboxamide], the AC50 in test [1] is 447 nM. Moreover, in test [2] (Homo sapiens, UM-UC-9, 144 h), the IC50 was determined as 747 nM.

Turning to `COc1cc(-c2cc(C(=O)N3CCC(C(=O)NC4CCC(O)(C(F)(F)F)CC4)CC34CC4)n[nH]2)ncn1` (single isomer, unassigned) [Example 338-A], in test [1], the AC50 was 9.3 nM. The IC50 in test [2] turned out to be 16.2 nM.

On to `COc1cc(-c2cc(C(=O)N3CC[C@@H](C(=O)NCc4cccc(Cl)c4)C[C@H]3C)n[nH]2)c(Cl)cn1` [Example 273, (2R,4R)-1-(5-(5-chloro-2-methoxypyridin-4-yl)-1H-pyrazole-3-carbonyl)-N-(3-chlorobenzyl)-2-methylpiperidine-4-carboxamide], for which the AC50 in test [1] amounted to 26.7 nM. Besides, the IC50 in test [2] (Homo sapiens, UM-UC-9, 144 h) came out at 213 nM.

With `COc1cc(-c2cc(C(=O)N3CC[C@H](C(=O)NCc4cccc(Cl)c4)CC34CCC4)n[nH]2)c(Cl)cn1` (single isomer, unassigned) [Example 256-A], the AC50 in test [1] turned out to be 92.4 nM. For the same compound, the IC50 in test [2] (Homo sapiens, UM-UC-9, 144 h) stood at 72.6 nM.

For `CCO[C@]1(C(F)(F)F)CC[C@@H](NC(=O)[C@@H]2CCN(C(=O)c3cc(-c4cc(OC)ncc4F)[nH]n3)C3(CC3)C2)CC1` (single isomer, unassigned) [Example 312-A], the AC50 in test [1] worked out at 172 nM. In addition, in test [2] (Homo sapiens, UM-UC-9, 144 h), the IC50 stood at 493 nM.

Turning to `COc1cc(-c2cc(C(=O)N3CCC(C(=O)NC4CCOc5ccc(F)cc54)CC3)n[nH]2)c(Cl)cn1` (racemic) [Example 195, 1-(5-(5-chloro-2-methoxypyridin-4-yl)-1H-pyrazole-3-carbonyl)-N-(6-fluorochroman-4-yl)piperidine-4-carboxamide], in test [1], the AC50 is 212 nM. Also, the IC50 in test [2] (Homo sapiens, UM-UC-9, 144 h) was 348 nM.

Consider “(1R,3S,5S)-8-[5-(5-fluoro-2-methoxypyridin-4-yl)-1H-pyrazole-3-carbonyl]-N-[(1r,4r)-4-(2-methoxyethoxy)-4-(trifluoromethyl)cyclohexyl]-8-azabicyclo[3.2.1]octane-3-carboxamide and (1R,3S,5S)-8-[5-(5-fluoro-2-methoxypyridin-4-yl)-1H-pyrazole-3-carbonyl]-N-[(1s,4s)-4-(2-methoxyethoxy)-4-(trifluoromethyl)cyclohexyl]-8-azabicyclo[3.2.1]octane-3-carboxamide [Example 304]”, for which the AC50 in test [1] worked out at 44.4 nM. The IC50 in test [2] amounted to 201 nM.

As to `COc1cc(-c2cc(C(=O)N3[C@@H]4CC[C@H]3C[C@H](C(=O)N[C@H]3CC[C@@](O)(C(F)(F)F)CC3)C4)n[nH]2)c(F)cn1` (single isomer, unassigned) [Example 170-A], in test [1], the AC50 is 4.7 nM. Further, the IC50 in test [2] (Homo sapiens, UM-UC-9, 144 h) came to 11.8 nM.

`COc1cc(-c2cc(C(=O)N3CCC(C(=O)NCc4ccc(F)cn4)CC3)n[nH]2)c(Cl)cn1` [Example 127, 1-(5-(5-chloro-2-methoxypyridin-4-yl)-1H-pyrazole-3-carbonyl)-N-((5-fluoropyridin-2-yl)methyl)piperidine-4-carboxamide]: in test [1], the AC50 came to 644 nM. Further, the IC50 in test [2] (Homo sapiens, UM-UC-9, 144 h) amounted to 2930 nM.

With `COc1cc(-c2cc(C(=O)N3CCC(C(=O)NCc4nccc(C(F)F)n4)CC3)n[nH]2)c(Cl)cn1` [Example 238, 1-(5-(5-chloro-2-methoxypyridin-4-yl)-1H-pyrazole-3-carbonyl)-N-((4-(difluoromethyl)pyrimidin-2-yl)methyl)piperidine-4-carboxamide], the AC50 in test [1] is 839 nM. The IC50 in test [2] (Homo sapiens, UM-UC-9, 144 h) came to 5160 nM.
